Data reported in the OPERA property sets (Mansouri et al. 2018).
Values after ≈ are worked out from the molar mass of the structure shown.

Details: not given

Structure (SMILES)	logP
CON(C)C(=O)Nc1ccc(Br)cc1	2.38
NC(=O)Nc1cccc(C(F)(F)F)c1	2.31
O=[N+]([O-])c1ccc(Br)c(Cl)c1	3.25
O=C(Nc1ccccc1)NC1CCCC1	2.65
CCCCOC(=O)Nc1ccccc1	3.3
CCCOC(=O)Nc1ccccc1	2.8

Other lines, results leading:

logP	Structure (SMILES)
2.94	CNC(=O)Nc1ccc(Cl)c(Cl)c1
2.18	CNC(=O)Nc1cccc(Cl)c1
1.37	COc1ccc(NC(N)=O)cc1Cl
1.59	Cc1cc(NC(N)=O)ccc1F
1.73	COc1cccc(NC(=O)N(C)C)c1
2.61	CNC(=O)Nc1ccc(C)c(Cl)c1
0.83	COc1ccc(NC(=O)N(C)C)cc1

Same assay, conditions: 25 °C

Structure (SMILES)	solubility [mM]
CC(=O)Nc1ccccc1Cl	39.8 (≈ 6750 µg/mL)
CC(=O)Nc1cccc(C)c1	8.11 (≈ 1210 µg/mL)
